Assay: Inhibition of binding of [125I]CCK-8 to Cholecystokinin type B receptor in guinea pig brain tissues

## O=C(NCC1CNc2ccccc2C(c2ccccc2F)=N1)C(O)c1ccccc1 (stereo unspecified)
  IC50: > 100 µM
